Measurements: ChEMBL document CHEMBL5442175, “EUbOPEN Chemogenomics Library - PDSP Secondary Binding” (2024)
Where a name gives a salt, the structure may show the parent alone.

Columns and labels:
[1] = target: 5-hydroxytryptamine receptor 2A (Homo sapiens, UniProt P28223); experiment: (§1) PDSP Secondary Binding target: HTR2A - Compounds are tested at 10 uM concentration, plate are incubated at room temperature in the dark for 90 minutes. Reaction are stopped by vacuum filtration onto 0.3% polyethyleneimine soaked filter mats using Filtermate harvester. Scintillation cocktail is then melted onto microwave-dried filters on a hot plate and the radio activity is counted in Microbia counter.
Sequence of 5-hydroxytryptamine receptor 2A (P28223 whole entry): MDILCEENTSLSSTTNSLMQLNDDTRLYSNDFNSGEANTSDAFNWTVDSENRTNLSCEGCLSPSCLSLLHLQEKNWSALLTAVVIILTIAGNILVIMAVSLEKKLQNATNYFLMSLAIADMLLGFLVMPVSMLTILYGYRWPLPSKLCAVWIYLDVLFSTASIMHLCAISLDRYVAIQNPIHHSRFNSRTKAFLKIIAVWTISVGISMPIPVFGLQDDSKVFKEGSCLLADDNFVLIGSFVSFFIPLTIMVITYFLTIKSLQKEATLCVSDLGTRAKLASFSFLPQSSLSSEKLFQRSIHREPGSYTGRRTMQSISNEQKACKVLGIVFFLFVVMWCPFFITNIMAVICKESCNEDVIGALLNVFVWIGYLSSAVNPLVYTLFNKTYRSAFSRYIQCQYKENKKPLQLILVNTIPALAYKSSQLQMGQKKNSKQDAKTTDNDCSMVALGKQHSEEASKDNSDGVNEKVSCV

[2] = target: Sodium-dependent noradrenaline transporter (Homo sapiens, UniProt P23975); experiment: as §1, with “SLC6A2” for “HTR2A”
Sequence of Sodium-dependent noradrenaline transporter (P23975 whole entry): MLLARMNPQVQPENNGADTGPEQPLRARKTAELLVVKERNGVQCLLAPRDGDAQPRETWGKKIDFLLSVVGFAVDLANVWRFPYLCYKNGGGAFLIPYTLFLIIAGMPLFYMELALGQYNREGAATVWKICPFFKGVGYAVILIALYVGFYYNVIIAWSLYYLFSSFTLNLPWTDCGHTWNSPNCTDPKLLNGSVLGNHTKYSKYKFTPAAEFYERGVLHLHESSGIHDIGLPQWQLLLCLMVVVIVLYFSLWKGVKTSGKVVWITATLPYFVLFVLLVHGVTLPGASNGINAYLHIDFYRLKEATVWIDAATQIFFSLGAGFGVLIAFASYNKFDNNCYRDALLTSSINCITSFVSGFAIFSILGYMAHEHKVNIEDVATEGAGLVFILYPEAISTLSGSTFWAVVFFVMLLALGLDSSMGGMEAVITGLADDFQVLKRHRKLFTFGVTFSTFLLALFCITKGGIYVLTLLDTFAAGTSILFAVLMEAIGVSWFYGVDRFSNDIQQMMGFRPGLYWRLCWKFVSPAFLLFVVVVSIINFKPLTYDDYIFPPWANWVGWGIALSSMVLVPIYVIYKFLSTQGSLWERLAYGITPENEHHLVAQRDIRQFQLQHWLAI

[3] = target: Sodium-dependent serotonin transporter (Homo sapiens, UniProt P31645); experiment: as §1, with “SLC6A4” for “HTR2A”
Sequence of Sodium-dependent serotonin transporter (P31645 whole entry): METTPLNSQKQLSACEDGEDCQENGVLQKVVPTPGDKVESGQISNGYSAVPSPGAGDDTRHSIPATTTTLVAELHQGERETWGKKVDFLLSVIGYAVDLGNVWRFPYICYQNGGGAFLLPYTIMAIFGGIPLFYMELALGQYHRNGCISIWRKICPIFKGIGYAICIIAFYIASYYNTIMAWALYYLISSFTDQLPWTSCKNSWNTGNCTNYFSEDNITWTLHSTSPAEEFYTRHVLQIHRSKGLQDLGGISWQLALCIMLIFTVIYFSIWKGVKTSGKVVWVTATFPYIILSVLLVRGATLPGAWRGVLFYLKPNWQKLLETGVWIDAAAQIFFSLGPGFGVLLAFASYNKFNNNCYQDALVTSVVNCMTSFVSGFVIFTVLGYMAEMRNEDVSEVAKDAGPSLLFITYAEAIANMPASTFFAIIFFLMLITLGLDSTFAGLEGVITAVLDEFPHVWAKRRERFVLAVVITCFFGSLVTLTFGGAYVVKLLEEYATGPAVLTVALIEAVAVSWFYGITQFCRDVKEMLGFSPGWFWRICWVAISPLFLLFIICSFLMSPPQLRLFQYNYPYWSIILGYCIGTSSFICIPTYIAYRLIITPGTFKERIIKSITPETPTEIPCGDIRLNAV

[4] = target: Histamine H1 receptor (Homo sapiens, UniProt P35367); experiment: as §1, with “HRH1” for “HTR2A”
Sequence of Histamine H1 receptor (P35367 whole entry): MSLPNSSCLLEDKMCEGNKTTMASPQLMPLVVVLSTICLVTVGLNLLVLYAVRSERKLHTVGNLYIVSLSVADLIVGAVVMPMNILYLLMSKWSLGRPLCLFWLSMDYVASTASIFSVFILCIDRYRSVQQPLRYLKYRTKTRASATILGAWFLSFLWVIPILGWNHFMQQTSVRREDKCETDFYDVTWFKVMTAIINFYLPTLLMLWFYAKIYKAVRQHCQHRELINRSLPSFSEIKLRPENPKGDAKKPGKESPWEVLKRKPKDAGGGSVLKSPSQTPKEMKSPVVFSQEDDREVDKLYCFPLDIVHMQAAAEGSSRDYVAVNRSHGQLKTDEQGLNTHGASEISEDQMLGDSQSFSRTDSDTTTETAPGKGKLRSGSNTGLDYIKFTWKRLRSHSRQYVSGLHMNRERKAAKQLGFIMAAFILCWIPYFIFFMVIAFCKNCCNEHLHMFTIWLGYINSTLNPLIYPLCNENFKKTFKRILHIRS

[5] = target: T1, Muscarinic acetylcholine receptor M5 (Homo sapiens, UniProt P08912); experiment: as §1, with “CHRM5” for “HTR2A”
T1 sequence (P08912 whole entry): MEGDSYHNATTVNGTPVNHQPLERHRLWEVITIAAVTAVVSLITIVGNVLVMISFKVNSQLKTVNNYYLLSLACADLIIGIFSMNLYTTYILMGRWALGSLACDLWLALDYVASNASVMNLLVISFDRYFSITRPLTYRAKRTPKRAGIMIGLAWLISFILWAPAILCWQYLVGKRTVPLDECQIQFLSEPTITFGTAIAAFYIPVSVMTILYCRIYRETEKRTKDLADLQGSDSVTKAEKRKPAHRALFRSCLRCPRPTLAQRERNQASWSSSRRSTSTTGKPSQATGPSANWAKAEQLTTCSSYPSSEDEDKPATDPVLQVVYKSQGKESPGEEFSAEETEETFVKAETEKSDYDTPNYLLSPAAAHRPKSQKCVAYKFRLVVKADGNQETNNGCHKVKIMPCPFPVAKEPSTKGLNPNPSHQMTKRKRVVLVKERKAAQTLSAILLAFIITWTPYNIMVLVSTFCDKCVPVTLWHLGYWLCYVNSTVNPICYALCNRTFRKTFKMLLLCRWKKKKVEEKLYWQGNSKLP

[6] = target: D(1B) dopamine receptor (Homo sapiens, UniProt P21918); experiment: as §1, with “DRD5” for “HTR2A”
Sequence of D(1B) dopamine receptor (P21918 whole entry): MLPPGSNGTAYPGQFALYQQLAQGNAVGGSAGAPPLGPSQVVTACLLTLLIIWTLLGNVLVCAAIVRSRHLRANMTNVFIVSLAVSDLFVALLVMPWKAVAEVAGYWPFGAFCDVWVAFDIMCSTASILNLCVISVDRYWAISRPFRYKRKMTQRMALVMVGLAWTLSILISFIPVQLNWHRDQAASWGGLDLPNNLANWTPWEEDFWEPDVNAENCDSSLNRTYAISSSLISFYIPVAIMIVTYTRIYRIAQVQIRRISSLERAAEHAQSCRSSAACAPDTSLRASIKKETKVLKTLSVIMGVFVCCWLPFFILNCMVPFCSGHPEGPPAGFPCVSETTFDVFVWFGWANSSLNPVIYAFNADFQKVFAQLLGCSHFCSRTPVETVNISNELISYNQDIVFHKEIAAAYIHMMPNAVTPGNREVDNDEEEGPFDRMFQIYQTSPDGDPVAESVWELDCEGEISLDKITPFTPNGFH

[7] = target: Mu-type opioid receptor (Homo sapiens, UniProt P35372); experiment: as §1, with “OPRM1” for “HTR2A”
Sequence of Mu-type opioid receptor (P35372 whole entry): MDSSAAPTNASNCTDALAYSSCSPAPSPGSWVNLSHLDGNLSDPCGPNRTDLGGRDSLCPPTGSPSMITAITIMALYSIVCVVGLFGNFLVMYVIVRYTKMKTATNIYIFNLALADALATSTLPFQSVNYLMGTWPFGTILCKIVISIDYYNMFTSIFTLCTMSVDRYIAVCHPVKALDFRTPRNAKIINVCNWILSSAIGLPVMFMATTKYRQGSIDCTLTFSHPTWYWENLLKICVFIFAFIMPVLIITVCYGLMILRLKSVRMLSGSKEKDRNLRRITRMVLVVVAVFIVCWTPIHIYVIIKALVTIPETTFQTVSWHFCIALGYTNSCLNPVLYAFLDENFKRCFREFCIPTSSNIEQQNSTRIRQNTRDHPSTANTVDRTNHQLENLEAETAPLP

[8] = target: 5-hydroxytryptamine receptor 1E (Homo sapiens, UniProt P28566); experiment: as §1, with “HTR1E” for “HTR2A”
Sequence of 5-hydroxytryptamine receptor 1E (P28566 whole entry): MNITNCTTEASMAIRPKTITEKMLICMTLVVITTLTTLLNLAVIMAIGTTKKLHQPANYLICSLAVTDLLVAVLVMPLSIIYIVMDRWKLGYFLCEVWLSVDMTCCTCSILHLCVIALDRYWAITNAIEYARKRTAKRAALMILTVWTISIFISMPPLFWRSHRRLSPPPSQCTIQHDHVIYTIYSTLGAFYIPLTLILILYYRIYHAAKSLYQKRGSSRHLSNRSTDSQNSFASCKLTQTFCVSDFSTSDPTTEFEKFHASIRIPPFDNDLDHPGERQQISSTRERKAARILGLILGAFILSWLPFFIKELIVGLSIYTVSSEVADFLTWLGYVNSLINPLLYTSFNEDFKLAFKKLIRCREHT

[9] = target: T2, 5-hydroxytryptamine receptor 1A (Homo sapiens, UniProt P08908); experiment: as §1, with “HTR1A” for “HTR2A”
T2 sequence (P08908 whole entry): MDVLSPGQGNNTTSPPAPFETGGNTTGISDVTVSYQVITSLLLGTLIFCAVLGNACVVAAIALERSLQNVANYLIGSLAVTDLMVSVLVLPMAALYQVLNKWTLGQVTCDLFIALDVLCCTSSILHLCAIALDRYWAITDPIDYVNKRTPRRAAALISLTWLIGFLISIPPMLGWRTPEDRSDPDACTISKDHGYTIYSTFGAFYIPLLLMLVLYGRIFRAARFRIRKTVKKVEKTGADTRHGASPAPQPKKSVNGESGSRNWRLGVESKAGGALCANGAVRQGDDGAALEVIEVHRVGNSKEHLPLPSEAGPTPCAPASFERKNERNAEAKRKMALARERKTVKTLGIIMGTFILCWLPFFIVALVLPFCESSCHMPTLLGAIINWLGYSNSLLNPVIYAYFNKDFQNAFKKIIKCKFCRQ

[10] = target: D(2) dopamine receptor (Homo sapiens, UniProt P14416); experiment: as §1, with “DRD2” for “HTR2A”
Sequence of D(2) dopamine receptor (P14416 whole entry): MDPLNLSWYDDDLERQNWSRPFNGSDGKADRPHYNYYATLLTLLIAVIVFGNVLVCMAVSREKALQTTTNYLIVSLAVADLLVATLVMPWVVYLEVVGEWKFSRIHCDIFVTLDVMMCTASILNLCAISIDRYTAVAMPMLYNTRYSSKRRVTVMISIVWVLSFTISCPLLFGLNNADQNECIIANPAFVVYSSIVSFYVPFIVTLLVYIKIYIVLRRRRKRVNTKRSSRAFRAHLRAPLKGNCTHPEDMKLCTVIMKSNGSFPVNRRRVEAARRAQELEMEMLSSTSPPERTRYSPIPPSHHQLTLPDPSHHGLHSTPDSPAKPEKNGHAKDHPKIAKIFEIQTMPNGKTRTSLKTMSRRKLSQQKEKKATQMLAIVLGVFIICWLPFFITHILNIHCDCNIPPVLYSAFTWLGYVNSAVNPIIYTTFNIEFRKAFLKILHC

[11] = target: T3, D(4) dopamine receptor (Homo sapiens, UniProt P21917); experiment: as §1, with “DRD4” for “HTR2A”
T3 sequence (P21917 whole entry): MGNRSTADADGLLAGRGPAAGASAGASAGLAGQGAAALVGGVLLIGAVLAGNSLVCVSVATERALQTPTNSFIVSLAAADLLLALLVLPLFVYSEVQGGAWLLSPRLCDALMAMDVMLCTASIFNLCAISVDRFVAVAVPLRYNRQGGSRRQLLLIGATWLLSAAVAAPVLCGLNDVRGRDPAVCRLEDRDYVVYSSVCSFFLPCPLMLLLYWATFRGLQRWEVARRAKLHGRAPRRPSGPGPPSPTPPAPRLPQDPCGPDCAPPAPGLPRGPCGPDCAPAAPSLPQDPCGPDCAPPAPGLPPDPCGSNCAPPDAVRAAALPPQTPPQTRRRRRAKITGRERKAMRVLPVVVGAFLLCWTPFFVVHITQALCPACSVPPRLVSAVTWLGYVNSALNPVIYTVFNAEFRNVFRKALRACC

## S=C(NCCCc1c[nH]cn1)NCCCN(Cc1ccc(Cl)c(Cl)c1)c1ccc(Br)cn1
[1]
  Ki: 0.202 µM
[2]
  Ki: 0.618 µM
[3]
  Ki: 0.209 µM
[4]
  Ki: 0.649 µM
[5]
  Ki: 0.491 µM
[6]
  Ki: 1.98 µM

## Cc1c(P(=S)(c2ccccc2)c2ccccc2)n2ccccc2[n+]1C/C=C/c1ccccc1
[1]
  Ki: 2.79 µM
[7]
  Ki: 0.102 µM
[2]
  Ki: 0.956 µM
[4]
  Ki: > 10 µM
[5]
  Ki: 0.51 µM

## COc1cc(-n2cnc3cc(-c4ccc(Cl)cc4)sc3c2=O)ccc1OCCN1CCCC1
[3]
  Ki: > 10 µM
[5]
  Ki: 2.64 µM

## Clc1cccc(COc2cncc(N3CCNCC3)n2)c1
[1]
  Ki: 0.105 µM
[8]
  Ki: 1.45 µM
[4]
  Ki: 1.45 µM
[9]
  Ki: 7.44 µM
[5]
  Ki: 0.293 µM

## CN1CCN(c2ccc(Nc3c4ccccc4nc4ccccc34)cc2)CC1
[2]
  Ki: 0.12 µM
[3]
  Ki: 1.15 µM
[4]
  Ki: 0.403 µM

## COc1ccc(NC(=O)c2ccc(-c3ccc(-c4noc(C)n4)cc3C)cc2)cc1OCCN(C)C
[1]
  Ki: 0.0357 µM
[8]
  Ki: 0.981 µM
[2]
  Ki: 0.664 µM
[3]
  Ki: 0.833 µM

## CCc1ccc(OCc2ccccc2C(=O)Nc2ccc3nc(C)cc(N)c3c2)cc1
[1]
  Ki: 0.548 µM
[7]
  Ki: 0.495 µM

## CN1CCCC(n2nc(Cc3ccc(Cl)cc3)c3ccccc3c2=O)CC1 (stereo not given) [AZELASTINE HYDROCHLORIDE]
[10]
  Ki: 1.18 µM
[1]
  Ki: 0.23 µM
[8]
  Ki: 5.37 µM

## O=c1ccc2ccc(OCCCCN3CCN(c4cccc5sccc45)CC3)cc2[nH]1 [BREXPIPRAZOLE]
[10]
  Ki: 0.00599 µM
[1]
  Ki: 0.0183 µM
[8]
  Ki: 0.478 µM
[2]
  Ki: 0.689 µM
[11]
  Ki: 0.036 µM
[3]
  Ki: 0.0656 µM
[4]
  Ki: 0.00888 µM
[9]
  Ki: 0.0232 µM
[6]
  Ki: 0.344 µM

## CN(C)C(=O)N[C@H]1CC[C@H](CCN2CCN(c3cccc(Cl)c3Cl)CC2)CC1 [CARIPRAZINE HYDROCHLORIDE]
[5]
  Ki: 1.43 µM

## CN1C[C@H](C(=O)N[C@]2(C)O[C@@]3(O)[C@@H]4CCCN4C(=O)[C@H](Cc4ccccc4)N3C2=O)C[C@@H]2c3cccc4[nH]cc(c34)C[C@H]21 [DIHYDROERGOTAMINE MESYLATE]
[10]
  Ki: 0.0609 µM
[7]
  Ki: 0.154 µM
[8]
  Ki: 0.682 µM
[11]
  Ki: 0.0328 µM
[9]
  Ki: 0.0391 µM
[6]
  Ki: 2.95 µM

## O=S1(=O)c2cccc3cccc(c23)N1CCCN1CCN(c2ccc(F)cc2)CC1 [FANANSERIN]
[2]
  Ki: > 10 µM
[11]
  Ki: 0.0957 µM
[3]
  Ki: 1.1 µM
[4]
  Ki: 0.0306 µM
[9]
  Ki: 0.518 µM

## Cc1ccc2c(c1)c1c(n2CCc2ccc(C)nc2)CCN(C)C1 [LATREPIRDINE]
[10]
  Ki: 1.55 µM
[1]
  Ki: 0.726 µM
[8]
  Ki: 5.57 µM

## CCc1nn(CCCN2CCN(c3cccc(Cl)c3)CC2)c(=O)n1CCOc1ccccc1 [NEFAZODONE HYDROCHLORIDE]
[10]
  Ki: 0.736 µM
[11]
  Ki: 0.326 µM
[4]
  Ki: 0.125 µM

## COC(=O)C1=C(C)NC(C)=C(C(=O)OCCCN2CCC(c3ccccc3)(c3ccccc3)CC2)[C@H]1c1cccc([N+](=O)[O-])c1 [NIGULDIPINE]
[10]
  Ki: 0.28 µM
[7]
  Ki: 0.129 µM
[2]
  Ki: 0.857 µM
[3]
  Ki: 0.862 µM
[4]
  Ki: 0.0897 µM
[9]
  Ki: 0.539 µM
[5]
  Ki: 0.718 µM
[6]
  Ki: 1.24 µM

## Cc1nc2sccn2c(=O)c1CCN1CCC(=C(c2ccc(F)cc2)c2ccc(F)cc2)CC1 [RITANSERIN]
[10]
  Ki: 0.184 µM
[7]
  Ki: 0.344 µM
[8]
  Ki: 0.556 µM
[2]
  Ki: 0.685 µM
[11]
  Ki: 0.238 µM
[3]
  Ki: 0.568 µM
[4]
  Ki: 0.0122 µM
[6]
  Ki: 0.493 µM

## OCc1cc(C(O)CNCCCCCCOCCCCc2ccccc2)ccc1O (stereo not given) [SALMETEROL]
[2]
  Ki: 0.382 µM
[11]
  Ki: 1.08 µM
[5]
  Ki: 0.971 µM

## Cc1nc(-c2ccc(-c3ccc(C(=O)N4CCc5cc6c(cc54)C4(CCN(C)CC4)CO6)cc3)c(C)c2)no1 [SB-224289]
[1]
  Ki: 1.78 µM
[2]
  Ki: 1.73 µM
[5]
  Ki: 0.344 µM
[6]
  Ki: 1.08 µM

## C[C@H](Cc1cc2c(c(C(N)=O)c1)N(CCCO)CC2)NCCOc1ccccc1OCC(F)(F)F [SILODOSIN]
[10]
  Ki: 0.989 µM
[11]
  Ki: 1.58 µM
[4]
  Ki: 3.53 µM
[9]
  Ki: 0.047 µM

## CCCCCNC(=N)N/N=C/c1c[nH]c2ccc(OC)cc12 [TEGASEROD MALEATE]
[10]
  Ki: 0.297 µM
[1]
  Ki: 0.431 µM
[7]
  Ki: 2.85 µM
[11]
  Ki: 0.191 µM
[9]
  Ki: 0.0839 µM
[6]
  Ki: 4.12 µM

## N#Cc1ccc2[nH]cc(CCCCN3CCN(c4ccc5oc(C(N)=O)cc5c4)CC3)c2c1 [VILAZODONE HYDROCHLORIDE]
[10]
  Ki: 0.553 µM
[7]
  Ki: 0.73 µM
[2]
  Ki: 0.0155 µM
[11]
  Ki: 0.824 µM
[4]
  Ki: 0.364 µM
